{"source": "the Kinase Knowledgebase extract (Sharma et al. 2016)", "note": "Several values for one entry are separate records, joined by “and”; a condition that tells them apart may be missing. Equal values may be shown once."}
{"biological_target": "MAPK14 (human) (UniProt Q16539)", "sequence (Q16539 whole entry, looked up)": "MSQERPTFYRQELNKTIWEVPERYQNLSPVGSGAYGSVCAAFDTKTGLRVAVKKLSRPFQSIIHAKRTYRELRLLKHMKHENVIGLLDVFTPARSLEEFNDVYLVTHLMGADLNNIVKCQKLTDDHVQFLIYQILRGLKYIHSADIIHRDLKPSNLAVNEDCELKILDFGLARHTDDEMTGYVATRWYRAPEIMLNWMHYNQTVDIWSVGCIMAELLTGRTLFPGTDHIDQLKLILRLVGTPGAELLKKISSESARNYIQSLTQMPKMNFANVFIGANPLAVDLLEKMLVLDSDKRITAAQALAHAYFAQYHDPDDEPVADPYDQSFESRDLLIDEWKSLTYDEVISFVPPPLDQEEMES", "test": "Inhibition of LPS Stimulated TNF Production by U937 Cells", "details": "not given"}
{"smiles": "O=C(N[C@H](Cc1ccccc1)c1[nH]nc(-c2ccc(F)cc2)c1-c1ccncc1)C1CC1", "IC50": "> 1000 nM"}
{"smiles": "CS(=O)(=O)NCc1[nH]nc(-c2ccc(F)cc2)c1-c1ccncc1", "IC50": "5000 nM"}
{"smiles": "Cc1[nH]nc(-c2ccc(F)cc2)c1-c1ccncc1", "IC50": "222 nM"}
{"smiles": "OCCn1cc(-c2ccnc(NCc3ccc(F)cc3)c2)c(-c2ccc(F)cc2)n1", "IC50": "140 nM and 800 nM"}
{"smiles": "CCCCS(=O)(=O)NCc1[nH]nc(-c2ccc(F)cc2)c1-c1ccncc1", "IC50": "5000 nM"}
{"smiles": "COc1ccc(CC(=O)NCc2[nH]nc(-c3ccc(F)cc3)c2-c2ccncc2)cc1OC", "IC50": "10000 nM"}
{"smiles": "Fc1ccc(-c2nn(CCN3CCOCC3)cc2-c2ccncc2)cc1", "IC50": "1830 nM"}
{"smiles": "CNC(=O)CC[C@H](NS(=O)(=O)Cc1ccccc1)c1[nH]nc(-c2ccc(F)cc2)c1-c1ccncc1", "IC50": "> 1000 nM"}
{"smiles": "CC(Nc1cc(-c2c[nH]nc2-c2ccc(F)cc2)ccn1)c1ccc(F)cc1", "note": "(stereo not given)", "IC50": "4.4 nM"}
{"smiles": "O=C(NCCc1[nH]nc(-c2ccc(F)cc2)c1-c1ccncc1)c1cc(Cl)cc(Cl)c1", "IC50": "> 1000 nM"}
{"smiles": "CC(C)C(=O)NCc1[nH]nc(-c2ccc(F)cc2)c1-c1ccncc1", "IC50": "650 nM"}
{"smiles": "CNC(=O)CC[C@H](NC(=O)Nc1ccccc1F)c1[nH]nc(-c2ccc(F)cc2)c1-c1ccncc1", "IC50": "> 1000 nM"}
{"smiles": "COc1cc(NC(=O)CCNC(=O)Cn2nc(-c3ccc(F)cc3)c(-c3ccncc3)c2C)cc2ccccc12", "IC50": "4220 nM"}
{"smiles": "CC(C)c1ccc(S(=O)(=O)NCc2[nH]nc(-c3ccc(F)cc3)c2-c2ccncc2)cc1", "IC50": "> 1000 nM"}
{"smiles": "C#CCn1cc(-c2ccncc2)c(-c2ccc(F)cc2)n1", "IC50": "500 nM"}
{"smiles": "O=C(NCCCc1[nH]nc(-c2ccc(F)cc2)c1-c1ccncc1)NC1CN2CCC1CC2", "note": "(stereo not given)", "IC50": "> 1000 nM"}
{"smiles": "COc1cccc(-c2[nH]nc(C)c2-c2ccncc2)c1", "IC50": "477 nM"}
{"smiles": "OCCn1cc(-c2ccnc(CCc3ccc(F)cc3)c2)c(-c2ccc(F)cc2)n1", "IC50": "583 nM"}
{"smiles": "Cn1cc(-c2ccncc2)c(-c2ccc(C(F)(F)F)cc2)n1", "IC50": "1200 nM"}
{"smiles": "Cn1cc(-c2ccncc2)c(-c2cccc(C(F)(F)F)c2)n1", "IC50": "402 nM"}
{"smiles": "O=C(Nc1ccccc1F)N1CCC(c2[nH]nc(-c3ccc(F)cc3)c2-c2ccncc2)CC1", "IC50": "92 nM"}
{"smiles": "CC(C)C(=O)N[C@@H](C)c1[nH]nc(-c2ccc(F)cc2)c1-c1ccncc1", "IC50": "1010 nM"}
{"smiles": "Fc1ccc(-c2n[nH]cc2-c2ccnc(NC3CCN(Cc4ccccc4)CC3)c2)cc1", "IC50": "543 nM"}
{"smiles": "Clc1ccc(-c2n[nH]cc2-c2ccnc(NCc3ccccn3)c2)cc1", "IC50": "166 nM"}
{"biological_target": "MAPK14 (human) (UniProt Q16539)", "test": "Inhibition of LPS Stimulated TNF Production by U937 Cells", "details": "concentration not given here", "units": {"inhibition": "%"}}
{"smiles": "Cc1c(-c2ccncc2)c(-c2ccc(F)cc2)nn1CC(=O)NCCc1cccs1", "inhibition": 36}
{"smiles": "O=C(NCc1[nH]nc(-c2ccc(F)cc2)c1-c1ccncc1)c1cccc(C(F)(F)F)c1", "inhibition": 13}
{"smiles": "CCc1ccc(S(=O)(=O)N[C@@H](C)c2[nH]nc(-c3ccc(F)cc3)c2-c2ccncc2)cc1", "inhibition": 92}
{"smiles": "C[C@@H](NC(=O)c1c(Cl)cccc1Cl)c1[nH]nc(-c2ccc(F)cc2)c1-c1ccncc1", "inhibition": 87}
{"smiles": "O=S(=O)(NCCCc1[nH]nc(-c2ccc(F)cc2)c1-c1ccncc1)c1cccc(C(F)(F)F)c1", "inhibition": 11}
{"smiles": "C[C@H](NC(=O)c1cccs1)c1[nH]nc(-c2ccc(F)cc2)c1-c1ccncc1", "inhibition": 21}
{"smiles": "O=S(=O)(c1ccc(-c2ccon2)s1)N1CCC(c2[nH]nc(-c3ccc(F)cc3)c2-c2ccncc2)CC1", "inhibition": 3}
{"smiles": "Cc1cccc(C)c1NC(=O)N[C@H](C)c1[nH]nc(-c2ccc(F)cc2)c1-c1ccncc1", "inhibition": 50}
{"smiles": "Cc1ccccc1S(=O)(=O)NCc1[nH]nc(-c2ccc(F)cc2)c1-c1ccncc1", "inhibition": 24}
{"smiles": "C[C@@H](NC(=O)Cc1cccs1)c1[nH]nc(-c2ccc(F)cc2)c1-c1ccncc1", "inhibition": 33}
{"smiles": "CN(C)S(=O)(=O)NCc1[nH]nc(-c2ccc(F)cc2)c1-c1ccncc1", "inhibition": 18}
{"smiles": "O=C(NCc1[nH]nc(-c2ccc(F)cc2)c1-c1ccncc1)N[C@@H]1C[C@@H]1c1ccccc1", "inhibition": 21}
{"smiles": "C[C@@H](NC(=O)[C@H]1CCCN1)c1[nH]nc(-c2ccc(F)cc2)c1-c1ccncc1", "inhibition": 39}
{"smiles": "C=CCNC(=O)N[C@@H](C)c1[nH]nc(-c2ccc(F)cc2)c1-c1ccncc1", "inhibition": 42}
{"smiles": "CC(=O)OC(C)(C)C(=O)N[C@H](C)c1[nH]nc(-c2ccc(F)cc2)c1-c1ccncc1", "inhibition": 17}
{"smiles": "C[C@@H](NS(=O)(=O)[C@@]12CC[C@H](CC1=O)C2(C)C)c1[nH]nc(-c2ccc(F)cc2)c1-c1ccncc1", "inhibition": 54}
{"smiles": "O=C(N[C@H](Cc1ccccc1)c1[nH]nc(-c2ccc(F)cc2)c1-c1ccncc1)[C@@H]1CCCN1", "inhibition": 11}
{"smiles": "C[C@H](NC(=O)Nc1ccc(F)cc1)c1[nH]nc(-c2ccc(F)cc2)c1-c1ccncc1", "inhibition": 26}
{"smiles": "C[C@H](NC(=O)c1ccc(F)cc1C(F)(F)F)c1[nH]nc(-c2ccc(F)cc2)c1-c1ccncc1", "inhibition": 58}
{"smiles": "C[C@H](NC(=O)c1cc2ccccc2s1)c1[nH]nc(-c2ccc(F)cc2)c1-c1ccncc1", "inhibition": 48}
{"smiles": "CCCCS(=O)(=O)N[C@H](C)c1[nH]nc(-c2ccc(F)cc2)c1-c1ccncc1", "inhibition": 45}
{"smiles": "O=C(NCc1[nH]nc(-c2ccc(F)cc2)c1-c1ccncc1)Nc1ccccc1", "inhibition": 31}
{"smiles": "C[C@H](NS(=O)(=O)c1ccc(-c2ccccc2)cc1)c1[nH]nc(-c2ccc(F)cc2)c1-c1ccncc1", "inhibition": 91}
{"smiles": "C[C@@H](NC(=O)c1cc(C(F)(F)F)ccc1F)c1[nH]nc(-c2ccc(F)cc2)c1-c1ccncc1", "inhibition": 43}
{"smiles": "C[C@H](NC(=O)c1ccc(Cl)cc1Cl)c1[nH]nc(-c2ccc(F)cc2)c1-c1ccncc1", "inhibition": 28}
{"smiles": "O=S(=O)(NCc1[nH]nc(-c2ccc(F)cc2)c1-c1ccncc1)c1ccccc1C(F)(F)F", "inhibition": 46}
{"smiles": "O=C(NCc1[nH]nc(-c2ccc(F)cc2)c1-c1ccncc1)Nc1ccccc1OC(F)(F)F", "inhibition": 25}
{"smiles": "CNC(=O)CC[C@H](NC(=O)C(C)C)c1[nH]nc(-c2ccc(F)cc2)c1-c1ccncc1", "inhibition": 25}
{"smiles": "COc1ccc(NC(=O)N[C@H](C)c2[nH]nc(-c3ccc(F)cc3)c2-c2ccncc2)c(OC)c1", "inhibition": 40}
{"smiles": "O=C(N[C@H](Cc1ccccc1)c1[nH]nc(-c2ccc(F)cc2)c1-c1ccncc1)[C@H]1CCCN1", "inhibition": 2}
{"smiles": "O=S(=O)(NCc1[nH]nc(-c2ccc(F)cc2)c1-c1ccncc1)c1ccc(C(F)(F)F)cc1", "inhibition": 60}
{"smiles": "O=S(=O)(NCc1[nH]nc(-c2ccc(F)cc2)c1-c1ccncc1)c1ccc(Cl)cc1", "inhibition": 37}
{"smiles": "O=C(NCCCc1[nH]nc(-c2ccc(F)cc2)c1-c1ccncc1)NCCc1ccccn1", "inhibition": 24}
{"smiles": "O=C(NCc1[nH]nc(-c2ccc(F)cc2)c1-c1ccncc1)c1cccc(C(F)(F)F)c1F", "inhibition": 29}
{"smiles": "C[C@@H](NC(=O)c1cc2ccccc2s1)c1[nH]nc(-c2ccc(F)cc2)c1-c1ccncc1", "inhibition": 16}
{"smiles": "O=S(=O)(c1ccc(C(F)(F)F)cc1)N1CCC(c2[nH]nc(-c3ccc(F)cc3)c2-c2ccncc2)CC1", "inhibition": 31}
{"smiles": "C[C@@H](NC(=O)c1ccc(I)cc1)c1[nH]nc(-c2ccc(F)cc2)c1-c1ccncc1", "inhibition": 25}
{"smiles": "Cc1cc(C)c(S(=O)(=O)N[C@H](C)c2[nH]nc(-c3ccc(F)cc3)c2-c2ccncc2)c(C)c1", "inhibition": 65}
{"smiles": "C[C@H](NC(=O)N(C)c1ccccc1)c1[nH]nc(-c2ccc(F)cc2)c1-c1ccncc1", "inhibition": 51}
{"smiles": "COC(=O)CCCCCCC(=O)NCc1[nH]nc(-c2ccc(F)cc2)c1-c1ccncc1", "inhibition": 9}
{"smiles": "N#Cc1cccc(S(=O)(=O)N2CCC(c3[nH]nc(-c4ccc(F)cc4)c3-c3ccncc3)CC2)c1", "inhibition": 14}
{"smiles": "COc1cc(NC(=O)NCc2[nH]nc(-c3ccc(F)cc3)c2-c2ccncc2)cc(OC)c1OC", "inhibition": 29}
{"smiles": "C[C@@H](NS(=O)(=O)C(F)(F)F)c1[nH]nc(-c2ccc(F)cc2)c1-c1ccncc1", "inhibition": 18}
{"smiles": "CCOC(=O)CCCC(=O)NCc1[nH]nc(-c2ccc(F)cc2)c1-c1ccncc1", "inhibition": 22}
{"smiles": "C[C@@H](NC(=O)N(C)c1ccccc1)c1[nH]nc(-c2ccc(F)cc2)c1-c1ccncc1", "inhibition": 30}
{"smiles": "O=C(NCc1[nH]nc(-c2ccc(F)cc2)c1-c1ccncc1)c1ccc(Cl)nc1", "inhibition": 15}
{"smiles": "O=C(NCCc1[nH]nc(-c2ccc(F)cc2)c1-c1ccncc1)c1ccc(C(F)(F)F)cc1", "inhibition": 30}
{"smiles": "C[C@@H](NS(=O)(=O)c1cccc(Cl)c1)c1[nH]nc(-c2ccc(F)cc2)c1-c1ccncc1", "inhibition": 97}
{"smiles": "C[C@@H](NS(=O)(=O)c1ccc(CNC(=O)c2ccccc2)s1)c1[nH]nc(-c2ccc(F)cc2)c1-c1ccncc1", "inhibition": 88}
{"smiles": "CCCOC(=O)N[C@H](C)c1[nH]nc(-c2ccc(F)cc2)c1-c1ccncc1", "inhibition": 54}
{"smiles": "C[C@H](NS(=O)(=O)c1ccc(F)cc1Cl)c1[nH]nc(-c2ccc(F)cc2)c1-c1ccncc1", "inhibition": 85}
{"smiles": "C[C@H](NS(=O)(=O)c1cn(C)cn1)c1[nH]nc(-c2ccc(F)cc2)c1-c1ccncc1", "inhibition": 74}
{"smiles": "COc1ccc(OC)c(S(=O)(=O)N2CCC(c3[nH]nc(-c4ccc(F)cc4)c3-c3ccncc3)CC2)c1", "inhibition": 24}
{"smiles": "O=C(NCCc1[nH]nc(-c2ccc(F)cc2)c1-c1ccncc1)c1ccc(F)cc1C(F)(F)F", "inhibition": 29}
{"smiles": "CSCCC(=O)NCc1[nH]nc(-c2ccc(F)cc2)c1-c1ccncc1", "inhibition": 13}
{"smiles": "C[C@H](NC(=O)c1c(F)cccc1C(F)(F)F)c1[nH]nc(-c2ccc(F)cc2)c1-c1ccncc1", "inhibition": 59}
{"smiles": "COc1ccc(OC)c(S(=O)(=O)NCCc2[nH]nc(-c3ccc(F)cc3)c2-c2ccncc2)c1", "inhibition": 29}
{"smiles": "Cc1ccc(C)c(S(=O)(=O)N[C@H](C)c2[nH]nc(-c3ccc(F)cc3)c2-c2ccncc2)c1", "inhibition": 93}
{"smiles": "C[C@H](NC(=O)c1cccc(C(F)(F)F)c1)c1[nH]nc(-c2ccc(F)cc2)c1-c1ccncc1", "inhibition": 32}
{"smiles": "O=C(NCCc1[nH]nc(-c2ccc(F)cc2)c1-c1ccncc1)c1cnc2ccccc2n1", "inhibition": 20}
{"smiles": "C[C@@H](NS(=O)(=O)Cc1ccccc1[N+](=O)[O-])c1[nH]nc(-c2ccc(F)cc2)c1-c1ccncc1", "inhibition": 91}
{"smiles": "C[C@@H](NS(=O)(=O)c1cn(C)cn1)c1[nH]nc(-c2ccc(F)cc2)c1-c1ccncc1", "inhibition": 80}
{"smiles": "C[C@H](NC(=O)c1cc(C(F)(F)F)ccc1F)c1[nH]nc(-c2ccc(F)cc2)c1-c1ccncc1", "inhibition": 32}
{"smiles": "C[C@H](NC(=O)c1cccc(Br)c1)c1[nH]nc(-c2ccc(F)cc2)c1-c1ccncc1", "inhibition": 21}
{"smiles": "C[C@H](NC(=O)c1c(F)cccc1F)c1[nH]nc(-c2ccc(F)cc2)c1-c1ccncc1", "inhibition": 56}
{"smiles": "C[C@H](NC(=O)NCCc1ccccc1)c1[nH]nc(-c2ccc(F)cc2)c1-c1ccncc1", "inhibition": 36}
